Experimental data: patent US11357857B2, “Excipient compounds for protein processing” (COMERA LIFE SCIENCES, INC., priority 2014, dated 2022)
“And” between values parts separate entries of the source, which are not always exact repeats. Equal values may be shown once. Where a name gives a salt, the structure may show the parent alone. Read-outs that look alike come from different tables or passages of the source.

Key:
[1] = excipient 10 mg/mL
[2] = Viscosity of PEG (Mw ~1,000,000) solution in Tris buffer with excipient (Examples 12-13); format: physicochemical
[3] = tested on: bovine gamma globulin (BGG); test: Normalized viscosity of 280 mg/mL BGG in 50 mM histidine HCl with primary/secondary excipient combinations (Example 10); format: physicochemical
Method: The primary excipient compounds were selected from compounds having both anionic and aromatic functionality, as listed below in Table 5. The secondary excipient compounds were selected from compounds having either nonionic or cationic charge at pH 6 and either imidazoline or benzene rings, as listed below in Table 5. Formulations of these excipients were prepared in 50 mM histidine hydrochloride buffer solution for viscosity measurement in the following way. […] The individual primary or secondary excipient compounds were then dissolved in 50 mM histidine HCl.

[4] = tested on: bovine gamma globulin (BGG)
Method: Each buffer solution contained different excipient or combination of excipients as described in the table below. The viscosity of the solutions was measured as described in previous examples.

[5] = tested on: bovine gamma globulin (BGG); test: Viscosity of 280 mg/mL BGG in histidine buffer pH 6 versus amount of arginine or caffeine added (Example 24); format: physicochemical
[6] = tested on: bovine gamma globulin (BGG); test: Viscosity of 280 mg/mL BGG in 20 mM histidine pH 6 with different molar caffeine concentrations, microVisc (Example 31); format: physicochemical
Method: The formulations for this Example were prepared in 20 mM histidine buffer for viscosity measurement in the following way.
The viscometer was equipped with an A-10 chip having a channel depth of 100 microns, and was operated at a shear rate of 250 l/s and 25° C. To measure viscosity, the test formulation was loaded into the viscometer, taking care to remove all air bubbles from the pipet. The pipet containing the loaded sample formulation was placed in the instrument and allowed to incubate at the measurement temperature for about five minutes. The instrument was then run until the channel was fully equilibrated with the test fluid, indicated by a stable viscosity reading, and then the viscosity recorded in centipoise.

[7] = tested on: bovine gamma globulin (BGG); conditions: 280 mg/mL BGG, 20 mM histidine pH 6, 25° C.; Excipient A caffeine 15 mg/mL; no Excipient B
bevacizumab (AVASTIN®) = test: Viscosity of concentrated AVASTIN with and without caffeine, microVisc (Example 40); conditions: for % Viscosity Reduction from Excipient: 10 mg/mL caffeine
Method: The sample was concentrated in Amicon Ultra 4 centrifugal concentrator tubes (MWCO 30 kDa) at 3500 rpm. […] AVASTIN® stock solution was diluted with the excipient buffer then concentrated in Amicon Ultra 15 centrifugal concentrator tubes (MWCO 30 kDa). The concentration of the excipient samples was determined by Bradford assay and the viscosity was measured using the RheoSense microVisc.

[8] = tested on: bovine gamma globulin (BGG); test: Normalized viscosity of 280 mg/mL BGG in 20 mM histidine with dimethyl sulfone (Example 42); format: physicochemical
Method: Such formulations were prepared in 20 mM histidine buffer for viscosity measurement in the following way. […].

PEGylated lysozyme = PEGylated lysozyme (Gallus gallus, UniProt P00698); conditions: excipient 20 mg/mL
Method: The solution was mixed by gently shaking and the viscosity was measured by a RheoSense microVisc equipped with an A10 channel (100 micron depth) at a shear rate of 500 sec−1. The viscometer measurements were completed at ambient temperature.

[9] = target: T1, PEGylated BSA (1 PEG chain per BSA molecule) (Bos taurus, UniProt P02769); test: Viscosity of PEGylated BSA with 1 PEG chain per BSA with excipient, microVisc (Example 17); format: physicochemical
T1 construct: purchased Aldrich A7906
Method: To a beaker was added 200 mL of a phosphate buffered saline (Aldrich Cat. #P4417) and 4 g of BSA (Aldrich Cat. #A7906) and mixed with a magnetic bar. Next 400 mg of methoxy polyethylene glycol maleimide, MW=5,000, (Aldrich Cat. #63187) was added. The reaction mixture was allowed to react overnight at room temperature. The following day, 20 drops of HCl 0.1 M were added to stop the reaction. […] The reaction mixture was placed in an Amicon centrifuge tube with a molecular weight cutoff (MWCO) of 30,000 and concentrated to a few milliliters. Next the sample was diluted 20 times with a histidine buffer, 50 mM at a pH of approximately 6, followed by concentrating until a high viscosity fluid was obtained.
The viscometer measurements were completed at ambient temperature.

[10] = tested on: bovine gamma globulin (BGG); test: Normalized viscosity of 280 mg/mL BGG in 20 mM histidine with local anesthetic excipients (Example 21); format: physicochemical; conditions: no B
Excerpt: The first excipient compound, Excipient A, was selected from a group of compounds having local anesthetic properties.

[11] = Caffeine solubility testing with co-solutes at ambient temperature (Examples 32-33); conditions: for Observation of caffeine dissolution: caffeine 80 mg/mL
Method: Prepared solutions were used either neat or diluted with deionized water.
A small magnetic stir bar was added to the vial, and the solution was allowed to mix vigorously on a stir plate for about 10 minutes.

[12] = tested on: bovine gamma globulin (BGG); conditions: excipient 50 mg/mL
[13] = tested on: bovine gamma globulin (BGG); test: Normalized viscosity of 280 mg/mL BGG in distilled water with excipient combinations (Example 11); format: physicochemical; conditions: primary excipient 20 mg/mL, no secondary
Method: The primary excipient compounds were selected from compounds having both anionic and aromatic functionality, as listed below in Table 6. The secondary excipient compounds were selected from compounds having either nonionic or cationic charge at pH 6 and either imidazoline or benzene rings, as listed below in Table 6. Formulations of these excipients were prepared in distilled water for viscosity measurement in the following way. […].

[14] = primary excipient 30 mg/mL, no secondary

T1 sequence (P02769 25-607): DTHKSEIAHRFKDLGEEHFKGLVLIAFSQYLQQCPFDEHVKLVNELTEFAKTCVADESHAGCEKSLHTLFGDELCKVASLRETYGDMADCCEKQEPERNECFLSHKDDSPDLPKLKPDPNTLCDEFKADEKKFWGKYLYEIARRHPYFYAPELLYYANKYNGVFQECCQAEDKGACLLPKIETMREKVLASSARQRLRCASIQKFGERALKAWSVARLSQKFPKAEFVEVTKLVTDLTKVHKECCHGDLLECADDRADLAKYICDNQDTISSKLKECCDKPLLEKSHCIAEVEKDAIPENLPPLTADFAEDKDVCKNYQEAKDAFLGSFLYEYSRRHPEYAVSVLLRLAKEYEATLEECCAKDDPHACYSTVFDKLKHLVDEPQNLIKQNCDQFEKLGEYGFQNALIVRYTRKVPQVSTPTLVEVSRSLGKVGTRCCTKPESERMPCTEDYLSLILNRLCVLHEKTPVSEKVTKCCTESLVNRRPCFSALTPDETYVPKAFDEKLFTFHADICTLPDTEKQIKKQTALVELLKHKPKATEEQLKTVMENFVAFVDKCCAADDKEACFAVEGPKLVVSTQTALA
PEGylated lysozyme, sequence (P00698 19-147): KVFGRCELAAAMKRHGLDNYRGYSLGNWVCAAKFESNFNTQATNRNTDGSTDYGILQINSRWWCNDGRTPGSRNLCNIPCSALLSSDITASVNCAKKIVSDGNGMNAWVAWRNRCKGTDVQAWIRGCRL

O=C(O)CC(O)(CC(=O)O)C(=O)O
Viscosity [1]: 74.9 cP | Viscosity Reduction [1]: 6.0% | Viscosity ([2]; excipient 20 mg/mL): 73.3 cP | Viscosity Reduction ([2]; excipient 20 mg/mL): 28% | Viscosity ([2]; excipient 40 mg/mL): 56.8 cP | Viscosity Reduction ([2]; excipient 40 mg/mL): 44%

O=S(=O)(O)c1ccc(O)cc1 [4-hydroxybenzene sulfonic acid]
Normalized Viscosity ([3]; primary excipient 31 mg/mL, no secondary): 0.59

O=C(O)c1ccc(O)cc1 [4-hydroxybenzoic acid]
Normalized Viscosity [3, 14]: 0.61

N=C(N)NCCC[C@H](N)C(=O)O [Arginine]
Viscosity ([4]; arginine 25 mg/ml): 76.7 cP | Viscosity Reduction ([4]; arginine 25 mg/ml): 41% | Viscosity ([5]; arginine added 53 mg/mL): 40.9 cP | Viscosity Reduction ([5]; arginine added 53 mg/mL): 48% | Viscosity ([5]; arginine added 79 mg/mL): 46.1 cP | Viscosity Reduction ([5]; arginine added 79 mg/mL): 42% | Viscosity ([5]; arginine added 105 mg/mL): 47.8 cP | Viscosity Reduction ([5]; arginine added 105 mg/mL): 40% | Viscosity ([5]; arginine added 132 mg/mL): 49.0 cP | Viscosity Reduction ([5]; arginine added 132 mg/mL): 38% | Viscosity ([5]; arginine added 158 mg/mL): 48.0 cP | Viscosity Reduction ([5]; arginine added 158 mg/mL): 39% | Viscosity ([5]; arginine added 174 mg/mL): 50.3 cP | Viscosity Reduction ([5]; arginine added 174 mg/mL): 36% | Viscosity ([5]; arginine added 211 mg/mL): 51.4 cP | Viscosity Reduction ([5]; arginine added 211 mg/mL): 35%

Cn1c(=O)c2c(ncn2C)n(C)c1=O [Caffeine]
Viscosity ([4]; caffeine 10 mg/ml): 87.9 cP | Viscosity Reduction ([4]; caffeine 10 mg/ml): 33% | Normalized Viscosity ([6]; caffeine 5 mM): 0.81 | Viscosity ([6]; caffeine 5 mM): 67 cP | Normalized Viscosity ([6]; caffeine 10 mM): 0.84 | Viscosity ([6]; caffeine 10 mM): 70 cP | Normalized Viscosity ([6]; caffeine 20 mM): 0.92 | Viscosity ([6]; caffeine 20 mM): 77 cP | Normalized Viscosity ([6]; caffeine 30 mM): 0.76 | Viscosity ([6]; caffeine 30 mM): 63 cP | Normalized Viscosity ([6]; caffeine 40 mM): 0.78 | Viscosity ([6]; caffeine 40 mM): 65 cP | Normalized Viscosity ([6]; caffeine 50 mM): 0.78 | Viscosity ([6]; caffeine 50 mM): 65 cP | Normalized Viscosity ([6]; caffeine 60 mM): 0.69 | Viscosity ([6]; caffeine 60 mM): 57 cP | Normalized Viscosity ([6]; caffeine 70 mM): 0.60 | Viscosity ([6]; caffeine 70 mM): 50 cP | Normalized Viscosity ([6]; caffeine 80 mM): 0.60 | Viscosity ([6]; caffeine 80 mM): 50 cP | Normalized Viscosity [7]: 0.77 | Viscosity with 10 mg/mL added caffeine excipient (bevacizumab (AVASTIN®); concentration 190 mg/mL): 13 cP | % Viscosity Reduction from Excipient (bevacizumab (AVASTIN®); concentration 190 mg/mL): 36% | % Viscosity Reduction from Excipient (bevacizumab (AVASTIN®); concentration 266 mg/mL): 62% | Normalized Viscosity ([3]; no primary, secondary excipient 10 mg/mL): 0.73 | Viscosity ([5]; caffeine added 10 mg/mL): 60 cP | Viscosity Reduction ([5]; caffeine added 10 mg/mL): 31% | Viscosity ([5]; caffeine added 15 mg/mL): 62 cP | Viscosity Reduction ([5]; caffeine added 15 mg/mL): 23% | Viscosity ([5]; caffeine added 22 mg/mL): 50 cP | Viscosity Reduction ([5]; caffeine added 22 mg/mL): 45%

CS(C)(=O)=O [Dimethyl sulfone]
Normalized Viscosity ([8]; dimethyl sulfone 15 mg/mL): 0.92 | Normalized Viscosity ([8]; dimethyl sulfone 30 mg/mL): 0.71 and 0.72 | Normalized Viscosity ([8]; dimethyl sulfone 50 mg/mL): 0.71

c1c[nH]cn1 [Imidazole]
Normalized Viscosity ([3]; no primary, secondary excipient 5 mg/mL): 0.75

CC(=O)[O-].[K+] [K acetate, potassium acetate]
Viscosity (PEGylated lysozyme): 22.6 cP | Viscosity Reduction (PEGylated lysozyme): 8% | Viscosity ([9]; excipient 40 mg/mL): 89.5 cP | Viscosity Reduction ([9]; excipient 40 mg/mL): 60%

CCN(CC)CC(=O)Nc1c(C)cccc1C [Lidocaine]
Normalized Viscosity ([10]; excipient A 23 mg/mL): 0.74 | Normalized Viscosity ([10]; excipient A 45 mg/mL): 0.73

O=P([O-])([O-])[O-].[K+].[K+].[K+] [Potassium phosphate, potassium phosphate tribasic]
Viscosity [1]: 72.3 cP | Viscosity Reduction [1]: 9.3%

CCN(CC)CCOC(=O)c1ccc(N)cc1 [Procaine HCl]
Observation of caffeine dissolution ([11]; co-solute 30 mg/mL): DND | Observation of caffeine dissolution ([11]; co-solute 40 mg/mL): DND | Dissolution of caffeine enabled relative to reported solubility limit ([11]; co-solute in water, ambient temperature (about 23 C)): at least about four times | Viscosity Reduction [12]: 47% | Normalized Viscosity ([10]; excipient A 40 mg/mL): 0.64

O=C(O)c1ccccc1O [Salicylic Acid]
Normalized Viscosity [3, 14]: 0.79 | Normalized Viscosity [13]: 0.96

O=S(=O)([O-])[O-].[Na+].[Na+] [Sodium sulfate]
Viscosity [1]: 75.1 cP | Viscosity Reduction [1]: 5.8%

Alpha-Cyclodextrin sulfated Na salt
Viscosity ([9]; excipient 20 mg/mL): 151.5 cP | Viscosity Reduction ([9]; excipient 20 mg/mL): 34%
